Experimental findings from patent US20240181006A1, “POLYPEPTIDES BINDING ADAMTS5, MMP13 AND AGGRECAN” (Merck Patent GmbH, priority 2017, published 2024) are described below.

Experiment [1] concerns bovine cartilage explants. As to the kind of experiment: bovine cartilage explant assay, IL-1α, GAG release (polypeptide 949). The experiment is classed as cell-based. As to conditions: 5 days with IL-1α, FIG. 3. As to the method: FIG. 3: Efficacy of polypeptide 949 (“NB949”) in bovine cartilage explant assay.
In short, the polypeptide was incubated with bovine cartilage explants that were cultured 5 days with IL-1α to induce an OA-like cartilage degradation process. Within 5 days, degradation of primarily Aggrecan ensues, whereas Collagen degradation only occurs after about two weeks, i.e., after termination of the experiments described here. At the end of the experiment, the GAG (mainly derived from Aggrecan) which was released from the degrading cartilage into the culture supernatant was quantified.

A further experiment has as its system human cartilage explants. As to the kind of experiment: human cartilage explant assay, IL-1β + OSM, GAG release. The format is cell-based. As to conditions: reference set at 100%, FIG. 4. As to the method:
FIG. 4: Efficacy of polypeptide 949 in a human cartilage explant assay.
Polypeptide 949 (M-A-C-C: 62C02-2F03-114F08-114F08) was tested in human cartilage explant assays for inhibition of cartilage degradation. Briefly, the polypeptide was incubated with human cartilage explants that were cultured 7 days with IL-1β+Oncostatin M (OSM). Within 7 days, degradation of primarily Aggrecan ensues, whereas Collagen degradation only occurs after about two weeks, i.e., after termination of the experiments described here. At the end of the experiment, the GAG (mainly derived from Aggrecan) which was released from the degrading cartilage into the culture supernatant was quantified. The IC50 was calculated on the basis of the negative control level (=GAG release from explants without additional stimulus) and the IL-1 β+OSM level, as measure for maximal GAG loss. GAG is shown as GAG release (in μg) per mg cartilage of each individual explant.

`CC(C)(Cc1ccc(F)cc1)NC(=O)[C@H](CCC(=O)O)NC(=O)c1ccc(-c2ccccc2)cc1` [AGG-523]: the “inhibition of bovine cartilage degradation (IL-1α stimulated GAG release)” value in experiment [1] is listed as “fully inhibits”. Besides, the “inhibition of stimulated GAG release in human cartilage explant assay” value with human cartilage explants is reported as “fully inhibits”.
